The NIST ThermoML archive (doi:10.1021/je050389b)

Experiment: xn = mol fraction of the nth substance listed
Conditions: Liquid; for viscosity: 100.5 kPa; for mass density: 101 kPa

CCCCCCCC(=O)OCC [ethyl octanoate] + CCO
Conditions	mass density, 288.15 K [kg/m3]	mass density, 298.15 K [kg/m3]	mass density, 308.15 K [kg/m3]	mass density, 318.15 K [kg/m3]	viscosity, 288.15 K [mPa·s]	viscosity, 298.15 K [mPa·s]	viscosity, 308.15 K [mPa·s]	viscosity, 318.15 K [mPa·s]
x1 = 0.05	805.14	796.5	787.73	778.81	1.322	1.094	0.915	0.772
x1 = 0.1	814.37	805.66	796.82	787.83	1.299	1.081	0.907	0.773
x1 = 0.15	822.04	813.27	804.39	795.36	1.306	1.087	0.915	0.78
x1 = 0.2	828.52	819.74	810.84	801.79	1.32	1.098	0.926	0.791
x1 = 0.25	833.98	825.17	816.25	807.19	1.337	1.112	0.94	0.804
x1 = 0.3	838.69	829.87	820.94	811.88	1.356	1.129	0.953	0.817
x1 = 0.35	842.77	833.94	825.02	815.96	1.375	1.145	0.969	0.831
x1 = 0.4	846.39	837.55	828.63	819.58	1.398	1.164	0.984	0.844
x1 = 0.45	849.59	840.77	831.86	822.83	1.42	1.183	1	0.859
x1 = 0.5	852.45	843.63	834.72	825.71	1.443	1.202	1.016	0.873
x1 = 0.55	855.04	846.23	837.34	828.36	1.468	1.222	1.033	0.888
x1 = 0.6	857.4	848.6	839.72	830.77	1.492	1.242	1.05	0.903
x1 = 0.65	859.54	850.77	841.92	832.99	1.517	1.262	1.068	0.917
x1 = 0.7	861.52	852.76	843.94	835.05	1.542	1.284	1.085	0.933
x1 = 0.75	863.4	854.68	845.88	837.01	1.568	1.306	1.103	0.948
x1 = 0.8	865.13	856.41	847.64	838.81	1.595	1.327	1.121	0.964
x1 = 0.85	866.72	858	849.25	840.47	1.623	1.35	1.14	0.979
x1 = 0.9	868.19	859.5	850.78	842.05	1.649	1.371	1.159	0.996
x1 = 0.95	869.6	860.93	852.26	843.57	1.673	1.391	1.177	1.013
x1 = 1	870.79	862.15	853.52	844.87	1.697	1.411	1.193	1.027

CCOC(=O)Cc1ccccc1 [ethyl phenylacetate] + CCO
Conditions	mass density, 288.15 K [kg/m3]	mass density, 298.15 K [kg/m3]	mass density, 308.15 K [kg/m3]	mass density, 318.15 K [kg/m3]	viscosity, 288.15 K [mPa·s]	viscosity, 298.15 K [mPa·s]	viscosity, 308.15 K [mPa·s]	viscosity, 318.15 K [mPa·s]
x1 = 0.05	825.34	816.54	807.65	798.61	1.366	1.127	0.947	0.798
x1 = 0.1	852	843.05	834	824.82	1.393	1.151	0.967	0.823
x1 = 0.15	874.72	865.65	856.49	847.17	1.447	1.195	1.003	0.855
x1 = 0.2	894.42	885.25	875.99	866.6	1.513	1.244	1.044	0.891
x1 = 0.25	911.6	902.37	893.03	883.57	1.584	1.298	1.089	0.93
x1 = 0.3	926.72	917.42	908.03	898.52	1.663	1.357	1.138	0.971
x1 = 0.35	940.14	930.79	921.36	911.82	1.742	1.418	1.188	1.012
x1 = 0.4	952.17	942.79	933.33	923.77	1.822	1.479	1.239	1.055
x1 = 0.45	963.02	953.61	944.13	934.56	1.904	1.543	1.292	1.099
x1 = 0.5	972.79	963.35	953.86	944.28	1.989	1.61	1.344	1.145
x1 = 0.55	981.67	972.24	962.73	953.16	2.076	1.677	1.399	1.191
x1 = 0.6	989.81	980.37	970.86	961.29	2.164	1.747	1.455	1.238
x1 = 0.65	997.27	987.81	978.31	968.75	2.255	1.821	1.513	1.286
x1 = 0.7	1004.13	994.68	985.19	975.65	2.348	1.895	1.571	1.336
x1 = 0.75	1010.49	1001.03	991.56	982.04	2.446	1.974	1.635	1.387
x1 = 0.8	1016.36	1006.93	997.48	987.98	2.555	2.053	1.702	1.441
x1 = 0.85	1021.84	1012.41	1002.97	993.53	2.672	2.14	1.772	1.498
x1 = 0.9	1026.95	1017.55	1008.14	998.73	2.79	2.23	1.847	1.558
x1 = 0.95	1031.75	1022.36	1012.99	1003.61	2.919	2.33	1.914	1.605
x1 = 1	1036.35	1026.96	1017.6	1008.26	3.002	2.384	1.948	1.624
